Measured values: patent US20090197975A1, “COMPOSITIONS FORMULATED FOR SOLVENT-REGULATED DRUG RELEASE” (MIV Therapeutics Inc., priority 2005, published 2009)

Test: Paclitaxel composition droplets immersed in PBS for 72 hours (FIG. 3)
Format: physicochemical
Conditions: 72 hours in PBS; DENA and DMSO present as solubilizing agents
Source text: FIG. 3 is two photographs comparing three drug compositions formulated in accordance with the invention. Each composition comprises the drug paclitaxel formulated with different compositional ratios of solvents, namely a first solvent comprising a mixture of 70% DENA and 30% DMSO and a second solvent comprising 70% castor oil and 30% soybean oil. The left-hand composition comprises 70% of the first solvent and 30% of the second solvent; the middle composition comprises 60% of the first solvent and 40% of the second solvent; and the right-hand composition comprises 50% of the first solvent and 50% of the second solvent.
In the example of FIG. 3, the release profile of a composition 10 comprising the water-insoluble lipophilic drug paclitaxel was investigated. Paclitaxel is a well-known chemotherapy agent. FIG. 3 compares three drug compositions comprising paclitaxel formulated with different compositional ratios of first and second solvents 14, 18. The concentration of paclitaxel is maintained at 20 weight percent in first solvent 14. In this example, first solvent 14 comprises a mixture of 70% DENA and 30% DMSO and second solvent 18 comprises 70% castor oil and 30% soybean oil. […]

- paclitaxel precipitate visually detected in the PBS: No white precipitate
Compound: CC(=O)O[C@H]1C(=O)[C@@]2(C)[C@H]([C@H](OC(=O)c3ccccc3)[C@]3(O)C[C@H](OC(=O)[C@H](O)[C@@H](NC(=O)c4ccccc4)c4ccccc4)C(C)=C1C3(C)C)[C@]1(OC(C)=O)CO[C@@H]1C[C@@H]2O [paclitaxel]
